Here are results for 12 molecules from US5552427A, “Glutaminase inhibitory compounds, compositions, and methods of use” (Takeda Chemical Industries, Ltd., priority 1993, dated 1996).

In assay [1] the target is T1, mitochondrial membrane enzyme glutaminase (Homo sapiens, UniProt O94925).
T1 sequence (O94925 73-669 limits assumed): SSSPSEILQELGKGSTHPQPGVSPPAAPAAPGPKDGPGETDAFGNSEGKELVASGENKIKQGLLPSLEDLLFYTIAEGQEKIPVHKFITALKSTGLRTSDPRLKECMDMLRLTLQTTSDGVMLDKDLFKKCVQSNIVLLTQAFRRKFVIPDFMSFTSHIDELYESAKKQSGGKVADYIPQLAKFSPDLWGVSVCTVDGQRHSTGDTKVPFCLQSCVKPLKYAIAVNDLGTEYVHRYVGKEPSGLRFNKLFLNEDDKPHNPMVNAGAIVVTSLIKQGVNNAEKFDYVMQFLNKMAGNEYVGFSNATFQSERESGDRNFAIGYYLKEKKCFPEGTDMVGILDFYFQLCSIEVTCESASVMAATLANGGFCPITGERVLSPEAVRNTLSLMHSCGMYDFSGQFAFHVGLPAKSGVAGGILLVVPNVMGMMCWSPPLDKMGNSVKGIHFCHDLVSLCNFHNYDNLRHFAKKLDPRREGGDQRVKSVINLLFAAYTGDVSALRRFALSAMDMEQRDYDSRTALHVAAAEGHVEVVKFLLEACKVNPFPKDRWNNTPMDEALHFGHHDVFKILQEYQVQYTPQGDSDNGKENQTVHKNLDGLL
Briefly: Inhibitory activity against the mitochondrial membrane enzyme glutaminase (crude enzyme of WiDr cells). Format: biochemical. Particulars: WiDr mitochondrial fraction, tritium-labelled glutamine 0.8 μM, phosphoric acid 200 mM, pH 8.0, 37° C., 15 minutes; read-out: IC50, enzymatic activity of glutaminase.

In assay [2] the test system is human colon carcinoma cells WiDr. Put plainly: In vitro cell proliferation inhibitory activity (Table 1), colon carcinoma cells WiDr, MTT. Format: cell-based. The following applies: 72 h, read-out: IC50, Colon carcinoma cells WiDr.
In assay [3] the test system is human normal fetal pulmonary fibroblasts HEL. Put plainly: In vitro cell proliferation inhibitory activity (Table 1), normal cells HEL, MTT. It is filed as cell-based. Particulars: Pulmonary fibroblast, 72 h, read-out: IC50, Normal cells HEL.
The next assay deals with Colon carcinoma LS180. Briefly: Cell proliferation inhibitory test (Table 2). It is filed as cell-based. The following applies: Homo sapiens; Colon carcinoma LS180 (Table 2); read-out: IC50, cell strain LS180. The method, then: (§1) to that in the control group was calculated, and the IC50 (i.e., a compound concentration required for decreasing the surviving cell amount to 50% of that in the control group) was calculated.

For a further assay, the system named is Colon carcinoma SW48. Briefly: Cell proliferation inhibitory test (Table 2). It is filed as cell-based. The following applies: Homo sapiens; Colon carcinoma SW48 (Table 2); read-out: IC50, cell strain SW48. The method, then:
as §1

A further assay concerns Colon carcinoma SW620. Briefly: Cell proliferation inhibitory test (Table 2). Format: cell-based. Particulars: Homo sapiens, SW-620; Colon carcinoma SW620 (Table 2); read-out: IC50, cell strain SW620. How it is done:
as §1

The subject of another assay is Colon carcinoma WiDr. Put plainly: Cell proliferation inhibitory test (Table 2). Format: cell-based. Particulars: Homo sapiens; Colon carcinoma WiDr (Table 2); read-out: IC50, cell strain WiDr. How it is done: as §1
Another assay has as its system Throat cancer KB. Put plainly: Cell proliferation inhibitory test (Table 2). It is filed as cell-based. The following applies: Throat cancer KB (Table 2); read-out: IC50, cell strain KB. The method, then: as §1
In another assay the test system is Colon carcinoma T84. Briefly: Cell proliferation inhibitory test (Table 2). Format: cell-based. Particulars: Colon carcinoma T84 (Table 2); read-out: IC50, cell strain T84. The method, then: as §1
For a further assay, the system named is Breast carcinoma SK-BR-3. Put plainly: Cell proliferation inhibitory test (Table 2). Format: cell-based. Particulars: Homo sapiens; Breast carcinoma SK-BR-3 (Table 2); read-out: IC50, cell strain SK-BR-3. How it is done: as §1
Assay [4] deals with Breast carcinoma MDA-MB-453. Put plainly: Cell proliferation inhibitory test (Table 2). Format: cell-based. The following applies: Homo sapiens; Breast carcinoma MDA-MB-453 (Table 2); read-out: IC50, cell strain MDA-MB-453. The method, then: as §1
The subject of another assay is Breast carcinoma Hs578T. Briefly: Cell proliferation inhibitory test (Table 2). Particulars: Homo sapiens, Hs-578T; Breast carcinoma Hs578T (Table 2); read-out: IC50, cell strain Hs578T. It is filed as cell-based. How it is done:
as §1

The next assay deals with Breast carcinoma T-47D. Briefly: Cell proliferation inhibitory test (Table 2). It is filed as cell-based. The following applies: Homo sapiens, T47D; Breast carcinoma T-47D (Table 2); read-out: IC50, cell strain T-47D. How it is done:
as §1

The subject of the next assay is Colon carcinoma SW948. Put plainly: Cell proliferation inhibitory test (Table 2). It is filed as cell-based. The following applies: Homo sapiens; Colon carcinoma SW948 (Table 2); read-out: IC50, cell strain SW948. The method, then: as §1
The next assay concerns Lung carcinoma A549. Briefly: Cell proliferation inhibitory test (Table 2). Format: cell-based. Particulars: Homo sapiens; Lung carcinoma A549 (Table 2); read-out: IC50, cell strain A549. How it is done: as §1
The next assay concerns Colon carcinoma LoVo. Put plainly: Cell proliferation inhibitory test (Table 2). It is filed as cell-based. The following applies: Homo sapiens; Colon carcinoma LoVo (Table 2); read-out: IC50, cell strain LoVo. The method, then:
as §1

The subject of the next assay is Colon carcinoma SW403. Briefly: Cell proliferation inhibitory test (Table 2). Format: cell-based. Particulars: Homo sapiens, SW-403; Colon carcinoma SW403 (Table 2); read-out: IC50, cell strain SW403. How it is done: as §1
Assay [5] has as its system Breast carcinoma MDA-MB-231. Briefly: Cell proliferation inhibitory test (Table 2). It is filed as cell-based. Particulars: Homo sapiens; Breast carcinoma MDA-MB-231 (Table 2); read-out: IC50, cell strain MDA-MB-231. How it is done: as §1
Assay [6] has as its system large intestinal cancer cell strains. Put plainly: Cell proliferation inhibitory tests, panel as a whole (selectivity in words). Format: cell-based, human. The following applies: large intestinal cancer cells / tumor cells. How it is done:
A cellular suspension (50 μl, 2,000 cells) of the human colon carcinoma cells WiDr or human normal fetal pulmonary fibroblasts HEL was inoculated in a 96-well microplate, and incubated at 37° C. in a 5% carbonic acid gas incubator. The next day, a 2-fold serially diluted solution (50 μl) of each compound was added and incubated for 3 days. The culture broth containing the compound was removed, the cells were washed, MTT pigment solution was added, and the surviving cell number was determined (Tada et al., J. Immunol. Methods, 93, 157-165 (1986)). The cell amount in a control group not treated with the compound solution was used as a standard (100%). The ratio of the cell amount in each treated group to that in the control group was calculated, and the IC50 (i.e., a compound concentration required for decreasing the surviving cell amount to 50% of that in the control group) was calculated.
as §1

Assay [7] deals with human colon carcinoma cells WiDr transplanted to nude mice. Briefly: In vivo colon carcinoma inhibitory activity, WiDr transplanted to nude mice (Test Example 3). More on the design: species or system human cells in Balb/C female nude mice. The following applies: oral; for Proliferation rate (tumor volume, treated/control): 3 times a day for 3 days, control = 100. How it is done: In vivo colon carcinoma inhibitory activity
The human colon carcinoma cells WiDr (5,000,000 cells) were subcutaneously transplanted to a thoracic part of each of Balb/C female nude mice (7 weeks of age). On the 5th day after the transplantation, the tumor size was measured. Five mice (per group) with almost the same tumor size were used for this experiment. Each of solutions of 2-amino-1-methylimidazole hydrochloride (50 mg/kg body weight, 100 mg/kg body weight and 200 mg/kg body weight) of the present invention in physiological saline was orally administered 3 times a day for 3 days. The day following the end of the administration, the tumor size was measured. The tumor volume was calculated from the following equation:
(§2) Tumor volume=(major axis)×(minor axis)×(minor axis)×(1/2)
(§3) The ratio of the tumor volume in the treated group to that in a control group to which physiological saline was administered was calculated as a proliferation rate.

The test system is the same in assay [8]. Put plainly: Activity of a compound having a protective group at the 2-amino group, WiDr transplanted to nude mice (Test Example 4). Format: in vivo, human cells in Balb/C female nude mice. Particulars: oral. The method, then:
Activity of a compound having a protective group at the 2-amino group
The human colon carcinoma cells WiDr (5,000,000 cells) were subcutaneously transplanted to the thoracic parts of Balb/C female nude mice (7 weeks old). On the 5th day after the transplantation, the tumor cell size was measured. Five mice (per group) with almost the same tumor size were used for this experiment. A solution of 2-benzyloxycarbonylamino-1-methylimidazole hydrochloride (80 mg/kg body weight) of the present invention in physiological saline was orally administered 3 times a day for 3 days. The day following the end of the administration, the tumor cell size was measured. The tumor volume was calculated from the following equation:
as §2, §3

The mark [9] stands for this setting: 3 days incubation, MTT (Table 1).
Setting [10] is: HEL, 3 days incubation, MTT (Table 1).

≈ marks a conversion by molar mass, not a printed value. Structures can show the parent of a compound that is named as a salt. Where two headings read alike, the source gives them in different places. A value given as a limit tells only on which side of the number the result lay.

As a reminder, the IC50 is the midpoint of a concentration-inhibition curve. On to `CCn1ccnc1N.Cl` [2-Amino-1-ethylimidazole hydrochloride], for which the 50% inhibitory concentration (IC50) in assay [1] was 50 mM; in assay [2] (setting [9]) it was 4.4 µg/mL; in assay [3] (setting [10]) it was above 80 µg/mL.
On to `Cl.Cn1ccnc1N` [2-Amino-1-methylimidazole hydrochloride], for which the IC50 in assay [1] is 30 mM; with Colon carcinoma LS180, 6.3 µg/mL; in the assay with Colon carcinoma SW48 it was 8.6 µg/mL; with Colon carcinoma SW620, 11 µg/mL; with Colon carcinoma WiDr, 1.1 µg/mL; in the assay on Throat cancer KB, above 80 µg/mL. Moreover, the IC50 in the assay with Colon carcinoma T84 was 2.8 µg/mL; with Breast carcinoma SK-BR-3, above 80 µg/mL; in assay [4], above 80 µg/mL; in the assay with Breast carcinoma Hs578T, 7 µg/mL; in the assay on Breast carcinoma T-47D it was 13 µg/mL; in the assay on Colon carcinoma SW948 it was 3.9 µg/mL. Besides, the half-inhibitory concentration (IC50) with Lung carcinoma A549 was 20 µg/mL; in the assay on Colon carcinoma LoVo, 7.6 µg/mL; with Colon carcinoma SW403, 5.2 µg/mL; in [5], above 80 µg/mL; in [2] (setting [9]) it was 1.1 µg/mL; in [3] (setting [10]), above 80 µg/mL. Besides, the “Selective inhibition of proliferation (in words)” value in assay [6] is on record as “selectively inhibits the proliferation of the large intestinal cancer cell strains”. The “Proliferation rate (tumor volume, treated/control)” value worked out at 76% in assay [7] (50 mg/kg), 64% in assay [7] (100 mg/kg) and 49% in assay [7] (200 mg/kg). The “Inhibition of proliferation of transplanted WiDr (in words)” value in assay [7] (nude mice) is given as “inhibited the proliferation of the human colon carcinoma cell strain WiDr transplanted to the nude mice in a concentration-dependent manner”.
Regarding `CN1CCN=C1N` [2-Amino-1-methylimidazoline hydrochloride], the IC50 in assay [1] was 100 mM; in assay [2] (setting [9]), 1.4 µg/mL; in [3] (setting [10]), above 80 µg/mL.
Turning to `Nc1ncc[nH]1.O=S(=O)(O)O` [2-Aminoimidazole sulfate], the IC50 was 12 µg/mL in [2] and above 80 µg/mL in [3].
As for `C=CCn1ccnc1N.Cl` [Example 1, 2-amino-1-(2-propenyl)imidazole hydrochloride], the IC50 in assay [2] (setting [9]) is 4.2 µg/mL; in assay [3] (setting [10]) it was above 80 µg/mL.
Turning to `Cn1ccnc1NC(=O)OCc1ccccc1` [Example 4, 2-benzyloxycarbonylamino-1-methylimidazole hydrochloride], the “Proliferation rate (tumor volume, treated/control)” value in assay [8] (80 mg/kg, 3 times a day for 3 days, control = 100) was 70%. Also, in [8] (nude mice), the “Inhibition of proliferation of transplanted WiDr (in words)” value is recorded as “inhibited the proliferation of the human large intestinal cancer cell strain WiDr transplanted to nude mice”.
Consider `COC(=O)[C@@H](N)Cn1ccnc1N` [Example 5, 3-(2-aminoimidazol-1-yl)-L-alanine methyl ester dihydrochloride], for which, in [1], the 50% inhibitory concentration (IC50) is 40 mM.
Consider `COC(=O)[C@@H](N)CCC(=O)Nc1nccn1C` [Example 8, methyl (2S)-2-amino-4-[(1-methylimiazol-2-yl)carbamoyl]butyrate dihydrochloride], for which the half-maximal inhibitory concentration (IC50) was 5 µg/mL in [2] (setting [9]) and above 80 µg/mL in assay [3] (setting [10]).
The matching figures for `Cn1ccnc1NC(=O)CC[C@H](N)C(=O)O` [Example 9, (2S)-2-amino-4-[(1-methylimidazol-2-yl)carbamoyl]butyric acid]: 5 µg/mL (≈ 22.1 µM) and above 80 µg/mL.
The matching figures for `COC(=O)[C@@H](N)CC(=O)Nc1nccn1C.Cl.Cl` [Example 13, methyl (2S)-2-amino-3-[(1-methylimidazol-2-yl)carbamoyl]propionate dihydrochloride]: 11 µg/mL and above 80 µg/mL.
The matching figures for `Cn1ccnc1N=Cc1ccccc1` [Reference Example 7, N-(1-methylimidazol-2-yl)benzylideneamine]: 1.4 µg/mL (≈ 7.56 µM) and above 80 µg/mL.
With `COc1ccc(C=Nc2nccn2C)cc1.Cl` [Reference Example 9, N-(1-methylimidazol-2-yl)-4-methoxybenzylideneamine hydrochloride], the IC50 in [2] (setting [9]) is 2.2 µg/mL; in assay [3] (setting [10]), above 80 µg/mL.
